Reference: ChEMBL document CHEMBL2440075, “In vitro structure-activity relationships of aplysinopsin analogs and their in vivo evaluation in the chick anxiety-depression model” (Bioorg Med Chem, 2013)
Activity calls are given as the source filed them. The rule behind the calls is not given here.

Experiments:
[1] = target: 5-hydroxytryptamine receptor 1E (Homo sapiens, UniProt P28566); assay: Displacement of [3H]5-HT from human recombinant 5HT1E receptor stably expressed in HEK cells; format: cell-based, HEK293
[2] = target: 5-hydroxytryptamine receptor 1D (Homo sapiens, UniProt P28221); assay: Displacement of [3H]5-CT from human recombinant 5HT1D receptor expressed in HEKT cells; format: cell-based
[3] = target: T1, 5-hydroxytryptamine receptor 1A (Homo sapiens, UniProt P08908); assay: Displacement of [3H]way100635 from human recombinant 5HT1A receptor stably expressed in CHO cells; format: cell-based
T1 sequence (P08908 whole entry): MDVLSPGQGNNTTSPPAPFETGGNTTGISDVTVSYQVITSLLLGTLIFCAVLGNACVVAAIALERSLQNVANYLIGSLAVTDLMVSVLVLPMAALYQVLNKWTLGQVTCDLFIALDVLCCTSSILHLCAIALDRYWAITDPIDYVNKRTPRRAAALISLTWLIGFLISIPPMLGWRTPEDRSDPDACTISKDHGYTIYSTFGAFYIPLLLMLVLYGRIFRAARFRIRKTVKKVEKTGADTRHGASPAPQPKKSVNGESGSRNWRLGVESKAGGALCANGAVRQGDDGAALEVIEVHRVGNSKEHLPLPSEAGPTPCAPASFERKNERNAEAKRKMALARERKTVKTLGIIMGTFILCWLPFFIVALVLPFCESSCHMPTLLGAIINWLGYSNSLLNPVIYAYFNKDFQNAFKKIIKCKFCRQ

[4] = target: 5-hydroxytryptamine receptor 1B (Homo sapiens, UniProt P28222); assay: Displacement of [3H]5-CT from human recombinant 5HT1B receptor stably expressed in HEK cells; format: cell-based, HEK293
[5] = target: 5-hydroxytryptamine receptor 2A (Rattus norvegicus, UniProt P14842); assay: Displacement of [3H]ketanserin from rat 5HT2A receptor stably expressed in 3T3 cells; format: cell-based
[6] = target: 5-hydroxytryptamine receptor 5A (Homo sapiens, UniProt P47898); assay: Displacement of [3H]LSD from human recombinant 5HT5A receptor expressed in Flp-In CHO cells; format: cell-based
[7] = target: T2, 5-hydroxytryptamine receptor 3A (Homo sapiens, UniProt P46098); assay: Displacement of [3H]GR65630 from human recombinant 5HT3 receptor expressed in HEKT cells; format: cell-based
T2 sequence (P46098 whole entry): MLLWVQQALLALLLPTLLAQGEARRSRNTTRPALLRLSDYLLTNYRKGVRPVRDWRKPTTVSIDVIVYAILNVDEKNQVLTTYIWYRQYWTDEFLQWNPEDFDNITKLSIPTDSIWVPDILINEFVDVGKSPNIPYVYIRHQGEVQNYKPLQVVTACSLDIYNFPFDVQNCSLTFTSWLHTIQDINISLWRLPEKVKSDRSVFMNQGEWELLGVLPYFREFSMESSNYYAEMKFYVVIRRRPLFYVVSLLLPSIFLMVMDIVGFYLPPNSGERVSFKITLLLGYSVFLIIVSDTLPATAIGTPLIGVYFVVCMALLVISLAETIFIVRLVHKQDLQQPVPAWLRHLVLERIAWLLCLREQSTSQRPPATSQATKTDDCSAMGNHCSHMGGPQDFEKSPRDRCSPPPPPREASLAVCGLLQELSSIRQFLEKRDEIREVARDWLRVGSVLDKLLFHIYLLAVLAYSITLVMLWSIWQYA

[8] = target: 5-hydroxytryptamine receptor 2B (Homo sapiens, UniProt P41595); assay: Displacement of [3H]LSD from human recombinant 5HT2B receptor stably expressed in HEK cells; format: cell-based, HEK293
[9] = target: T3, 5-hydroxytryptamine receptor 2C (Homo sapiens, UniProt P28335); assay: Displacement of [3H]mesulergine from human recombinant 5HT2C receptor expressed in Flp-IN HEK cells; format: cell-based, HEK293
T3 sequence (P28335 whole entry): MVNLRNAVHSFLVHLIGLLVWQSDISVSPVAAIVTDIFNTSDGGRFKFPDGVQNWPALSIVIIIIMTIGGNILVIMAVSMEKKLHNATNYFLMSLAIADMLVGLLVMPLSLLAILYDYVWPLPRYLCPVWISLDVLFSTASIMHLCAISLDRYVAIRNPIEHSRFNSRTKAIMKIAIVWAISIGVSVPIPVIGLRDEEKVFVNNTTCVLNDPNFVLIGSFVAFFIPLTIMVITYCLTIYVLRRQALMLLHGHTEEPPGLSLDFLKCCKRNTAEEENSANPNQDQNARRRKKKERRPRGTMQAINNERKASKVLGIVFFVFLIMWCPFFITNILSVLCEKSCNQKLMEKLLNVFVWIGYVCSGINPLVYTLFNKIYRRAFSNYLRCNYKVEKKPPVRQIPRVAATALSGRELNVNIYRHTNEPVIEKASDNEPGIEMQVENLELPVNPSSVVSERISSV

Gallus gallus [10] = assay: Effect on social seperation in chick anxiety-depression model assessed as attenuation of decline in distress vocalizations during depression-like phase at 5 mg/kg, ip 15 mins prior to behavioral testing measured after 45 to 60 mins; format: functional, organism-based; parameters: dose 5 mg/kg
Gallus gallus [11] = assay: Effect on social seperation in chick anxiety-depression model assessed as attenuation of decline in distress vocalizations during depression-like phase at 5 mg/kg, ip 15 mins prior to behavioral testing measured after 30 to 45 mins; format: functional, organism-based; parameters: dose 5 mg/kg
Gallus gallus [12] = assay: Effect on isolation-stressor in chick anxiety-depression model assessed as attenuation of decline in distress vocalizations during depression-like phase at 5 mg/kg, ip 15 mins prior to behavioral testing measured after 5 to 60 mins; format: functional, organism-based; parameters: dose 5 mg/kg
[13] = target: 5-hydroxytryptamine receptor 6 (Homo sapiens, UniProt P50406); assay: Displacement of [3H]LSD from human recombinant 5HT6 receptor stably expressed in HEK cells; format: cell-based, HEK293
Gallus gallus [14] = assay: Effect on social seperation in chick anxiety-depression model assessed as reduction in distress vocalizations during anxiety-like phase at 10 to 100 nM/kg, ip 15 mins prior to behavioral testing measured for 1 to 5 mins; format: functional, organism-based
Gallus gallus [15] = assay: Effect on social seperation in chick anxiety-depression model assessed as attenuation of decline in distress vocalizations during depression-like phase at 10 to 100 nM/kg, ip 15 mins prior to behavioral testing measured after 30 to 45 mins; format: functional, organism-based
[16] = target: 5-hydroxytryptamine receptor 7 (Homo sapiens, UniProt P34969); assay: Displacement of [3H]LSD from human recombinant 5HT7 receptor stably expressed in HEK cells; format: cell-based, HEK293
Gallus gallus [17] = assay: Effect on isolation-stressor in chick anxiety-depression model assessed as attenuation of decline in distress vocalizations during depression-like phase at 30 nM/kg, ip 15 mins prior to behavioral testing measured after 5 to 60 mins; format: functional, organism-based
Gallus gallus [18] = assay: Effect on social seperation in chick anxiety-depression model assessed as attenuation of decline in distress vocalizations during depression-like phase at 30 nM/kg, ip 15 mins prior to behavioral testing measured after 45 to 60 mins; format: functional, organism-based
Gallus gallus [19] = assay: Effect on isolation-stressor in chick anxiety-depression model assessed as reduction in distress vocalizations during anxiety-like phase at 10 to 100 nM/kg, ip 15 mins prior to behavioral testing measured for 1 to 5 mins; format: functional, organism-based

Sequence of 5-hydroxytryptamine receptor 1B (P28222 whole entry): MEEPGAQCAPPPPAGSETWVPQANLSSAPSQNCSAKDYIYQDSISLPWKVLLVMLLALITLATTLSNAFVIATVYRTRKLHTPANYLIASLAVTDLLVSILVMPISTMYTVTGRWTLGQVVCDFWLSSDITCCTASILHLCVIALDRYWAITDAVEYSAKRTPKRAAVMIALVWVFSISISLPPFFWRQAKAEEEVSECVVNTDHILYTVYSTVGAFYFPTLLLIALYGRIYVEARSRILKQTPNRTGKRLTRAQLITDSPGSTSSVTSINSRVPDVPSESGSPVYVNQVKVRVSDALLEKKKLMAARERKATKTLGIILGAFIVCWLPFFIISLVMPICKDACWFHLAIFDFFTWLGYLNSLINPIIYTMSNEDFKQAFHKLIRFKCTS
Sequence of 5-hydroxytryptamine receptor 5A (P47898 whole entry): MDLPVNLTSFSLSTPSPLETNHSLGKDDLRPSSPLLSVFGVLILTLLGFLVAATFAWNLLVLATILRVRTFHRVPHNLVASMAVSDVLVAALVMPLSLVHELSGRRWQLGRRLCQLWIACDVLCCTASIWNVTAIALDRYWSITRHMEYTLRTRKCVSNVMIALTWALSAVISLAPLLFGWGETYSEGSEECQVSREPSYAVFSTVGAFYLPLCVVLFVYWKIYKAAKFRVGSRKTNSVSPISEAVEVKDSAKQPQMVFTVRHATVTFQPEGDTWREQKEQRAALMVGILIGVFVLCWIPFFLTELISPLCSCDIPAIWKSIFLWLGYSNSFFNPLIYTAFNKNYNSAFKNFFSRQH
Sequence of 5-hydroxytryptamine receptor 2B (P41595 whole entry): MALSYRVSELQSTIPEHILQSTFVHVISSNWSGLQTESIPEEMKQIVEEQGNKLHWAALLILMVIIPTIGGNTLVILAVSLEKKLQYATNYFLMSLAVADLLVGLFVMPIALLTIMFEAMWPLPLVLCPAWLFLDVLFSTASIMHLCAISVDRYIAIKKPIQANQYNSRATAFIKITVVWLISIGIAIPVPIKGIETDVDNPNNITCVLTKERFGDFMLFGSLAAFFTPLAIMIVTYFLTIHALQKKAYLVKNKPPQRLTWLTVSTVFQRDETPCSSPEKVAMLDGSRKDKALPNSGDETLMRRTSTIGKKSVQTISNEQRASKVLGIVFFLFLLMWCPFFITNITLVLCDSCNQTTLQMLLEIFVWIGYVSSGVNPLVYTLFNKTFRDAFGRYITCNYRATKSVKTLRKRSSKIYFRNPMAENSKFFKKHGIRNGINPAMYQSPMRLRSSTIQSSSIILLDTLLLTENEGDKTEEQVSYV
Sequence of 5-hydroxytryptamine receptor 2A (P14842 whole entry): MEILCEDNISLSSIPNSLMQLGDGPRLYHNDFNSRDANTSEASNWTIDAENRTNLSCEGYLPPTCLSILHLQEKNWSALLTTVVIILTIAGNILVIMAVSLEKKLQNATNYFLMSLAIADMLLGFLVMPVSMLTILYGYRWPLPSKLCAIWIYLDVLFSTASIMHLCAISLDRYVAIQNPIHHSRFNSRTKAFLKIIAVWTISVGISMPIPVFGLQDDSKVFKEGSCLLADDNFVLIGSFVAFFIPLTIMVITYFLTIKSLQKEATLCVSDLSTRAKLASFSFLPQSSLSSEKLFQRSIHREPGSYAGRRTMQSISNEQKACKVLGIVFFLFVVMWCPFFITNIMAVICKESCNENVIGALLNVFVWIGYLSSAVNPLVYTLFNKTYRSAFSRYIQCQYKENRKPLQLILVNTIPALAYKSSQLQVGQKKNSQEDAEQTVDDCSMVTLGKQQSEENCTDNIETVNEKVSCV
Sequence of 5-hydroxytryptamine receptor 1D (P28221 whole entry): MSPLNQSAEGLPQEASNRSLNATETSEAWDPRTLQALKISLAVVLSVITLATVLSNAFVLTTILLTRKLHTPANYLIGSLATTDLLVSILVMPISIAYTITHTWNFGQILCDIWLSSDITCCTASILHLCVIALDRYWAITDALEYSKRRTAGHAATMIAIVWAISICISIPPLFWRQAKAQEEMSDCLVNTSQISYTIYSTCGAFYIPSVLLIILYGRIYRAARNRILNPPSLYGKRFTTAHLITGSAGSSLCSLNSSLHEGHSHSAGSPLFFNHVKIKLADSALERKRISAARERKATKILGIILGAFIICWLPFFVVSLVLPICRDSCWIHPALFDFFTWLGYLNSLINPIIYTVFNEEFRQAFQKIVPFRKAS
Sequence of 5-hydroxytryptamine receptor 6 (P50406 whole entry): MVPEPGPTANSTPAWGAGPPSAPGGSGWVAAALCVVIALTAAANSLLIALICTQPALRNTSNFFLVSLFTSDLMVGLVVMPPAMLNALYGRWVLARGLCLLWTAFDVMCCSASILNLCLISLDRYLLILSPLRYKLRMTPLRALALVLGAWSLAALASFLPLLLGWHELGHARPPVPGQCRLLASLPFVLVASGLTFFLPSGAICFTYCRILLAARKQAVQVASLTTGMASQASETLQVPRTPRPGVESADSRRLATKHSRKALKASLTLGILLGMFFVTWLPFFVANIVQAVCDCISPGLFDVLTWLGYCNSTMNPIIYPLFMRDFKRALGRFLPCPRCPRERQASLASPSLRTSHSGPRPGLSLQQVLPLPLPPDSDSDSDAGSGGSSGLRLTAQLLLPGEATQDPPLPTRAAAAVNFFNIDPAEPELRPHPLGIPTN
Sequence of 5-hydroxytryptamine receptor 1E (P28566 whole entry): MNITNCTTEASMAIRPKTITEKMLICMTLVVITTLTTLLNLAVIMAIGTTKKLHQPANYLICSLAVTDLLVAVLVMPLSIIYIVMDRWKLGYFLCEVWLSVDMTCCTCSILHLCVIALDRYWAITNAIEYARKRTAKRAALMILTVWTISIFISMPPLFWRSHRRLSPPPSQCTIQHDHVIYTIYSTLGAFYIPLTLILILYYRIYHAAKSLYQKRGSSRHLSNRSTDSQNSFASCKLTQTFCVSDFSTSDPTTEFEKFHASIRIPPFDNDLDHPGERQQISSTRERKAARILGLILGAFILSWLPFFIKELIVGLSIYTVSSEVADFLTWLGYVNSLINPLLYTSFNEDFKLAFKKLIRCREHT
Sequence of 5-hydroxytryptamine receptor 7 (P34969 whole entry): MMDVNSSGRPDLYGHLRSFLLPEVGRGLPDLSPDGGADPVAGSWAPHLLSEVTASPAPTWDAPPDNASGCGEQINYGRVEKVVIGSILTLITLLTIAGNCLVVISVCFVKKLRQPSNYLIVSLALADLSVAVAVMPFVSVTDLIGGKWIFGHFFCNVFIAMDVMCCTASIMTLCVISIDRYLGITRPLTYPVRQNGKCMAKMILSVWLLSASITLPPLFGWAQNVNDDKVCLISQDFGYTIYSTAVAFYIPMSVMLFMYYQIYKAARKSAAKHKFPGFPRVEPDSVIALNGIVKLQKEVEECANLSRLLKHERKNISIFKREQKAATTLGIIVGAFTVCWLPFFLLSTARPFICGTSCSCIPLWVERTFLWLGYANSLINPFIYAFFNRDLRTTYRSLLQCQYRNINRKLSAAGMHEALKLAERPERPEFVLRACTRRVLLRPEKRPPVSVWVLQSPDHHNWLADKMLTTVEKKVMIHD

**Q.** CN1C(=N)N(C)/C(=C/c2c[nH]c3cccc(Br)c23)C1=O was tested. Which Ki [1] did it give?
**A.** > 10 µM

**Q.** And the Ki [2]?
**A.** 6.83 µM

**Q.** What about the Ki [3] of the same compound?
**A.** 315 nM

**Q.** And the Ki [4]?
**A.** > 10 µM

**Q.** And the Ki [5]?
**A.** > 10000 nM

**Q.** What about the Ki [6] of the same compound?
**A.** 7830 nM

**Q.** And the Ki [7]?
**A.** 656 nM

**Q.** What about the Ki [8] of the same compound?
**A.** 589 nM

**Q.** What about the Ki [9] of the same compound?
**A.** 2760 nM

**Q.** For CN(C)CCCN1c2ccccc2CCc2ccccc21, which Activity (Gallus gallus [10]) is on record?
**A.** Active

**Q.** And the Activity (Gallus gallus [11])?
**A.** Active

**Q.** What about the Activity (Gallus gallus [12]) of the same compound?
**A.** Active

**Q.** What does the source list for N=C1NC(=O)/C(=C\c2c[nH]c3ccc(Br)cc23)N1?
**A.** Ki [5]: 58 nM; Ki [6]: 89 nM; Ki [13]: 742 nM; Activity (Gallus gallus [14]): Active; Ki [8]: 51 nM; Ki [9]: 35 nM; Activity (Gallus gallus [15]): inactive; Ki [16]: 512 nM; Activity (Gallus gallus [17]): Active; Activity (Gallus gallus [18]): Active; Activity (Gallus gallus [19]): inactive

**Q.** With CN1C(=N)N(C)/C(=C/c2c[nH]c3c(Br)cccc23)C1=O as the compound, how does the Ki [1] read?
**A.** > 10 µM

**Q.** And the Ki [2]?
**A.** > 10 µM

**Q.** And the Ki [3]?
**A.** 1810 nM

**Q.** And the Ki [4]?
**A.** > 10 µM

**Q.** What about the Ki [7] of the same compound?
**A.** 1220 nM

**Q.** And the Ki [8]?
**A.** 349 nM

**Q.** What about the Ki [9] of the same compound?
**A.** 3010 nM

**Q.** Which results are given for C/N=C1\NC(=O)/C(=C\c2c[nH]c3cccc(Br)c23)N1C?
**A.** Ki [2]: > 10 µM; Ki [3]: 4610 nM; Ki [4]: > 10 µM; Ki [5]: 662 nM; Ki [6]: 1450 nM; Ki [13]: 1410 nM; Ki [7]: 5920 nM; Ki [8]: 99 nM; Ki [9]: 320 nM
